One data set in a line: Stability study in CH3CN. The format is physicochemical. To be noted: 25° C., checked by HPLC and 1H-NMR. The method, then:
Stability and solubility studies of the sulfur transfer reagents were performed. […] The stability of the compound was checked by HPLC and ^1H-NMR.
(§1) The solubility and stability studies were carried out in CH3CN at 25° C. The saturated solution was dried, and the solubility was determined by the weight of the testing compounds in the exact volume of testing solution. The stability was determined based on either TLC or HPLC and ^1H-NMR analyses.

A short description of data set [1]: Solubility study in CH3CN. To be noted: 25° C. The format is physicochemical. The procedure:
as §1

As for `O=c1nc(-c2ccccc2)ss1` [3-phenyl-1,2,4-dithiazoline-5-one], the “stable in CH3CN” value in the data set “Stability study in CH3CN” was “more than thirty”. Also, in data set [1], the “solubility in CH3CN” value was “highly soluble”.
